Where two headings read alike, the source gives them in different places.
Assays:
[1] = target: T1, human OX1R (Homo sapiens, UniProt O43613); test: Agonist activity against OX1R: intracellular calcium (Fura-2AM, FDSS7000) in CHOOX1R cells; format: cell-based; details: for Emax at 0.1 µM / Emax at 1 µM / Emax at 10 µM: read-out: Response (%) OX1R
T1 construct: expressed in transfected cells; host or cells: CHO (Chinese hamster ovary) cells, line CHOOX1R, co-expressing NFAT-luciferase
T1 sequence (O43613 1-425): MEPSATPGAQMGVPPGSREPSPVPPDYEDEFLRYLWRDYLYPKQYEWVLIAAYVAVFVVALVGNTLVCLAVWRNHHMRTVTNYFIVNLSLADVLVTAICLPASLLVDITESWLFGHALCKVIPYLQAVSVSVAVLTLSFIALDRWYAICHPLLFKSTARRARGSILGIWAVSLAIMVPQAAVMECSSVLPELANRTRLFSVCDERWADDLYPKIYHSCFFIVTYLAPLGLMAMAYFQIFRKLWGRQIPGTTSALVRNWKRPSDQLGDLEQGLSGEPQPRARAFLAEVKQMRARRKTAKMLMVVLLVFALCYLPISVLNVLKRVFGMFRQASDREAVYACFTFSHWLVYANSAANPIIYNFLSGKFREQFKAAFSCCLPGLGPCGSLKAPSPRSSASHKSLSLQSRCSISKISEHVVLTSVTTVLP
In short: (§1)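 CHO cells stably expressing human OX1R or OX2R (plus NFAT-luciferase) were loaded with 5 μM Fura-2AM for 60 min, then given compound at 10^−7 to 10^−5 M final (1% DMSO). Calcium change read as 340/380 nm excitation fluorescence ratio; response expressed as % of orexin-A maximal activity at 10, 1.0 and 0.1 μM.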

[2] = target: T2, human OX2R (Homo sapiens, UniProt O43614); test: Agonist activity against OX2R: intracellular calcium (Fura-2AM, FDSS7000) in CHOOX2R cells; format: cell-based; details: relative to orexin-A as full agonist (100%)
T2 construct: expressed in transfected cells; host or cells: CHO (Chinese hamster ovary) cells, line CHOOX2R, co-expressing NFAT-luciferase
T2 sequence (O43614 1-444): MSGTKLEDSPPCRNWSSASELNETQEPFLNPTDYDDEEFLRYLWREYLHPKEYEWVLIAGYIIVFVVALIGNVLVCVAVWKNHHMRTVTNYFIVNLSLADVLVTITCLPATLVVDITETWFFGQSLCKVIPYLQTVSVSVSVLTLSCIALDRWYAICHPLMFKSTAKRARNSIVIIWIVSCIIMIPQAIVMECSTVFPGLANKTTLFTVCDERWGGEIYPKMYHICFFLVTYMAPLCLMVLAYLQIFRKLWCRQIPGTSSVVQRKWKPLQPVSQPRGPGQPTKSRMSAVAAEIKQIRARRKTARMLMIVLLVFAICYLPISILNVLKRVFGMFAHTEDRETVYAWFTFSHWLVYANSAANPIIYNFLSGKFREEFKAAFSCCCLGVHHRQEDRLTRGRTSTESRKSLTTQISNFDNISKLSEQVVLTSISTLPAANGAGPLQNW
In short: as §1

[3] = 0.1 μM test compound, relative to orexin-A as full agonist (100%)
[4] = 1.0 μM test compound, relative to orexin-A as full agonist (100%)
[5] = 10 μM test compound, relative to orexin-A as full agonist (100%)
[6] = test compound 0.1 μM, relative to orexin-A as full agonist (100%)
[7] = test compound 1.0 μM, relative to orexin-A as full agonist (100%)
[8] = test compound 10 μM, relative to orexin-A as full agonist (100%)

Row | SMILES | Response (%) OX1R [1, 3] | Response (%) OX1R [1, 4] | Response (%) OX1R [1, 5] | Response (%) OX2R ([2]; 0.1 μM test compound) | Response (%) OX2R ([2]; 1.0 μM test compound) | Response (%) OX2R ([2]; 10 μM test compound) | Response (%) OX2R ([2]; test compound 0.1 μM) | Response (%) OX2R ([2]; test compound 1.0 μM) | Response (%) OX2R ([2]; test compound 10 μM) | other results
1 | COc1ccc(-c2cccc(C(=O)N(C)C)c2)cc1S(=O)(=O)Nc1cccc(NC(=O)Nc2cccc(C(=O)O)c2)c1 [Example 48] | <5% | <5% | <5% | <5% | <5% | 14% | – | – | – | –
2 | COc1ccc(-c2cccc(C(=O)N(C)C)c2)cc1S(=O)(=O)Nc1cccc(NS(C)(=O)=O)c1 [Example 89] | – | – | – | – | – | – | 7% | 8% | 31% | Response (%) OX1R [1, 6]: <5%; Response (%) OX1R [1, 7]: <5%; Response (%) OX1R [1, 8]: <5%
3 | COc1ccc(-c2cccc(C(=O)N(C)C)c2)cc1S(=O)(=O)Nc1cccc(NC(=N)Nc2cccc(C)c2)c1 [Example 78] | <5% | <5% | 14% | 23% | 89% | 86% | – | – | – | –
4 | COc1ccc(-c2cccc(C(=O)N(C)C)c2)cc1S(=O)(=O)Nc1cccc(N(C)C(=O)N(C)c2cccc(N(C)C)c2)c1 [Example 126, 3′-(N-(3-(3-(3-(dimethylamino)phenyl)-1,3-dimethylureido)phenyl)sulfamoyl)-4′-methoxy-N,N-dimethyl-[1,1′-biphenyl]-3-carboxamide] | – | – | – | – | – | – | 7% | 37% | 85% | Emax at 0.1 µM [1]: 5%; Emax at 1 µM [1]: 5%; Emax at 10 µM [1]: < 5%
5 | COc1ccc(-c2cccc(C(=O)N(C)C)c2)cc1S(=O)(=O)Nc1cccc(NC(=O)Nc2ccccc2N(C)C)c1 [Example 41] | <5% | <5% | <5% | 17% | 93% | 102% | – | – | – | –
6 | COc1ccc(-c2cccc(C(=O)N(C)C)c2)cc1S(=O)(=O)Nc1cccc(NC(=O)c2ccc3c(c2)OCO3)c1 [Example 5] | 8% | 8% | 7% | 10% | 8% | 19% | – | – | – | –
7 | COc1ccc(-c2cccc(C(=O)N(C)C)c2)cc1S(=O)(=O)Nc1cccc(NC(=O)Nc2ccc(NC(=NC(=O)OC(C)(C)C)NC(=O)OC(C)(C)C)cc2)c1 [Example 58] | <5% | <5% | <5% | <5% | <5% | 63% | – | – | – | –
8 | COc1ccc(C(=O)Nc2cccc(N(C)C)c2)cc1S(=O)(=O)Nc1cccc(NC(=O)Nc2cccc(N(C)C)c2)c1 [Example 106] | – | – | – | – | – | – | 9% | 7% | 46% | Response (%) OX1R [1, 6]: 8%; Response (%) OX1R [1, 7]: 7%; Response (%) OX1R [1, 8]: 8%
9 | COc1ccc(-c2cccc(C(=O)N(C)C)c2)cc1S(=O)(=O)Nc1cccc(N(C)C)c1 [Example 96, 3′-(N-(3-(dimethylamino)phenyl)sulfamoyl)-4′-methoxy-N,N-dimethyl-[1,1′-biphenyl]-3-carboxamide] | – | – | – | – | – | – | <5% | <5% | 67% | Emax at 0.1 µM [1, 6]: < 5%; Emax at 1 µM [1, 7]: < 5%; Emax at 10 µM [1, 8]: < 5%
10 | COc1cccc(S(=O)(=O)Nc2cccc(NS(=O)(=O)c3cc(-c4cccc(C(=O)N(C)C)c4)ccc3OC)c2)c1 [Example 85, 4′-methoxy-3′-(N-(3-(3-methoxyphenylsulfonamido)phenyl)sulfamoyl)-N,N-dimethyl-[1,1′-biphenyl]-3-carboxamide] | – | – | – | – | – | – | <5% | <5% | 12% | Emax at 0.1 µM [1, 6]: < 5%; Emax at 1 µM [1, 7]: < 5%; Emax at 10 µM [1, 8]: < 5%
11 | COc1ccc(NC(=O)Nc2cccc(NS(=O)(=O)c3cc(-c4cccc(C(=O)N(C)C)c4)ccc3OC)c2)cc1 [Example 53] | <8% | 6% | 26% | 98% | 95% | 100% | – | – | – | –
12 | COc1ccc(-c2cccc(C(=O)N(C)C)c2)cc1S(=O)(=O)Nc1cccc(NC(=O)Nc2ccc(N)cc2)c1 [Example 55] | <5% | <5% | <5% | <5% | 54% | 105% | – | – | – | –
13 | COc1cccc(CNc2cccc(NS(=O)(=O)c3cc(-c4cccc(C(=O)N(C)C)c4)ccc3OC)c2)c1 [Example 23] | <5% | 10% | 51% | 54% | 95% | 86% | – | – | – | –
14 | COc1ccc(-c2cccc(C(=O)N(C)C)c2)cc1S(=O)(=O)Nc1cccc(NC(=O)Nc2ccc(Br)cc2)c1 [Example 42] | <5% | <5% | <5% | 93% | 109% | 95% | – | – | – | –
15 | COc1ccc(CNc2cccc(NS(=O)(=O)c3cc(-c4cccc(C(=O)N(C)C)c4)ccc3OC)c2)cc1 [Example 22] | <5% | 47% | 82% | 57% | 61% | 48% | – | – | – | –
16 | COc1ccc(C(=O)Nc2cccc(NS(=O)(=O)c3cc(-c4cccc(C(=O)N(C)C)c4)ccc3OC)c2)cc1 [Example 19] | <5% | <5% | <5% | <5% | 10% | 58% | – | – | – | –
17 | COc1ccc(-c2cccc(C(=O)N(C)C)c2)cc1S(=O)(=O)Nc1cccc(NC(=O)c2ccccc2C)c1 [Example 16] | <5% | <5% | 10% | <5% | 19% | 82% | – | – | – | –
18 | CN(C)C(=O)c1cccc(-c2ccc(O)c(S(=O)(=O)Nc3cccc(NC(=O)Nc4cccc(N(C)C)c4)c3)c2)c1 [Example 115] | – | – | – | – | – | – | <5% | 8% | 62% | Response (%) OX1R [1, 6]: <5%; Response (%) OX1R [1, 7]: <5%; Response (%) OX1R [1, 8]: <5%

Source: patent US10351522B2, “Sulfonamide derivative and pharmaceutically acceptable acid addition salt thereof” (UNIVERSITY OF TSUKUBA, priority 2015, dated 2019)
